# Assay: Color of the formulations: colorimetry of thin films on contrast map (spectro-colorimeter Minolta CM2600D), L*a*b* system
# Format: physicochemical
# Conditions: result in words; equivalent formulations (2 % merocyanine)
# Description: Protocol for evaluating the color of the formulations
# The color of the formulations was evaluated after preparation of thin films on contrast map. The formulations were deposited within a circle of 2.2 cm of diameter and planed to obtain thicknesses of reproducible deposit. The colorimetric measures were then made by means of a spectro-colorimeter Minolta CM2600D in two points of the film. This operation is twice reproduced, which leads to 4 experimental values by formulation.
# The results are expressed in the system (L *, has *, b *) in which L* represents the luminance, a* represents the red-green axis (-a* = green, +a* = red) and b* represents the yellow-blue axis (-b* blue, +b* yellow). So, a* and b* express the shade of the compound.
# The difference of color ΔE* was calculated from the variations ΔL*, Δa* et Δb* between the compound (2) and the compound MC11 with the following equation : ((ΔE*))^2 = ((ΔL*))^2 + ((Δa*))^2 + ((Δb*))^2 [formula] • ΔL* = L* formulation with compound MC11 - L* formulation with compound (2) • Δa* = a* formulation with compound MC11 - a* formulation with compound (2) • Δb* = b* formulation with compound MC11 - b* formulation with compound (2)
# We consider that the difference of color between the two compounds is significant if ΔE* > 2.
compound,measurement,value
"CCOCCOC(=O)/C(C#N)=C1\C=C(NCCCOC)CCC1 [Compound (2), 2-ethoxyethyl (2Z)-cyano{3-[(3-methoxypropyl)amino]cyclohex-2-en-1-ylidene}ethanoate]",color compared with compound MC11 of WO2008/090066,significantly less yellow
